Data reported in US20020065303A1, “Bivalent phenylene inhibitors of factor Xa” (priority 2000, published 2002).

Assays:
Format in all cases: biochemical
[1] = molecular target: Prothrombinase (Homo sapiens, UniProt P00742); test: Prothrombinase inhibition assay, plasma free system; details: factor Xa 0.5 nM, factor Va 2 nM, PS:PC, 5 min preincubation; read-out: Inhibitory Activity (IC50) Prothrombinase IIase
Description: (§1) The compounds of the present invention are dissolved in buffer to give solutions containing concentrations such that assay concentrations range from about 0 to about 100 μM. In the assays for thrombin, prothrombinase and factor Xa, a synthetic chromogenic substrate is added to a solution containing test compound and the enzyme of interest and the residual catalytic activity of that enzyme is determined spectrophotometrically. The IC50 of a compound is determined from the substrate turnover. The IC50 is the concentration of test compound giving about 50% inhibition of the substrate turnover.
The prothrombinase inhibition assay is performed in a plasma free system with modifications to the method described by Sinha, U. et al., Thromb. Res., 75, 427-436 (1994). Specifically, the activity of the prothrombinase complex is determined by measuring the time course of thrombin generation using the p-nitroanilide substrate Chromozym TH. The assay consists of preincubation (5 minutes) of selected compounds to be tested as inhibitors with the complex formed from factor Xa (0.5 nM), factor Va (2 nM), phosphatidyl serine:phosphatidyl choline (25:75, 20 μM) in 20 mM Tris.HCl buffer, pH 7.5, containing 0.15 M NaCl, 5 mM CaCl2 and 0.1% bovine serum albumin. […] The rate of substrate cleavage is monitored at 405 nm for two minutes. […]

[2] = molecular target: Factor Xa (Homo sapiens, UniProt P00742); test: Factor Xa amidolytic assay (chromogenic substrate S-2765); details: room temperature, pH 7.5, 5 min preincubation; read-out: Inhibitory Activity (IC50) Factor Xa Xa
Description: as §1
(§2) The factor Xa and thrombin assays are performed at room temperature, in 0.02 M Tris.HCl buffer, pH 7.5, containing 0.15 M NaCl. The rates of hydrolysis of the para-nitroanilide substrate S-2765 (Chromogenix) for factor Xa, and the substrate Chromozym TH (Boehringer Mannheim) for thrombin following preincubation of the enzyme with inhibitor for 5 minutes at room temperature, and are determined using the Softmax 96-well plate reader (Molecular Devices), monitored at 405 nm to measure the time dependent appearance of p-nitroaniline.

[3] = molecular target: Thrombin (Homo sapiens, UniProt P00734); test: Thrombin amidolytic assay (chromogenic substrate Chromozym TH); details: room temperature, pH 7.5, 5 min preincubation; read-out: Inhibitory Activity (IC50) Thrombin IIa
Description: as §1, §2

Sequence of Factor Xa (P00742 235-488 limits assumed): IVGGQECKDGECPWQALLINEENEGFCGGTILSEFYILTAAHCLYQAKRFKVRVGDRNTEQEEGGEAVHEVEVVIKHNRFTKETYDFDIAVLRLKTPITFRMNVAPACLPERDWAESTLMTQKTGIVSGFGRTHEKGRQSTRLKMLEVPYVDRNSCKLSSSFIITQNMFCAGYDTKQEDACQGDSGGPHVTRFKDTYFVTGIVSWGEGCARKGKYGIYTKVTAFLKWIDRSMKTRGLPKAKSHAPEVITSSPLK
Sequence of Factor Xa (P00742 41-179 limits assumed): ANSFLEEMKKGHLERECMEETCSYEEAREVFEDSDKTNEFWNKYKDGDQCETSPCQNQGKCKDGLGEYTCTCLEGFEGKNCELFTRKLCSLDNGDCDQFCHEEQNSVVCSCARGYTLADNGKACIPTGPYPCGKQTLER
Sequence of Prothrombinase (P00742 235-488 limits assumed): as the sequence (P00742 235-488 limits assumed) above
Sequence of Prothrombinase (P00742 41-179 limits assumed): as the sequence (P00742 41-179 limits assumed) above
Sequence of Prothrombinase (P12259 29-737 partner limits assumed): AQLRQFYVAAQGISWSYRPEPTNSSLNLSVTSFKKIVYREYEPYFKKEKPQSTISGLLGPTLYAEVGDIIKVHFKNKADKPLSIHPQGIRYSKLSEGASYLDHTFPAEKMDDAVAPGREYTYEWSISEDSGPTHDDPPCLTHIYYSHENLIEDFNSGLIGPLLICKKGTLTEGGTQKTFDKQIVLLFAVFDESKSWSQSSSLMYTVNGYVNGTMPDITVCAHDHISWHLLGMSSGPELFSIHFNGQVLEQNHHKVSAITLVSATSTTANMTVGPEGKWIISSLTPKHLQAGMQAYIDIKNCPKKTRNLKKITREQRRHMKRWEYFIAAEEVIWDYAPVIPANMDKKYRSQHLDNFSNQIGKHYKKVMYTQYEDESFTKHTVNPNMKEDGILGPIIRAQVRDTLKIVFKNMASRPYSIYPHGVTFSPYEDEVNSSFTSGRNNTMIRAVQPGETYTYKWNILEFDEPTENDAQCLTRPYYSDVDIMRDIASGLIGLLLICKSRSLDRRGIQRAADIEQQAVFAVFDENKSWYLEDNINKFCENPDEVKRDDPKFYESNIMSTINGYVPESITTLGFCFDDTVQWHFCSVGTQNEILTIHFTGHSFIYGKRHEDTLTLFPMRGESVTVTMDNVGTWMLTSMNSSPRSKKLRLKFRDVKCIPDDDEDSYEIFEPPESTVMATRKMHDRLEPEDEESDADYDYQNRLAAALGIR
Sequence of Prothrombinase (P12259 1574-2224 partner limits assumed): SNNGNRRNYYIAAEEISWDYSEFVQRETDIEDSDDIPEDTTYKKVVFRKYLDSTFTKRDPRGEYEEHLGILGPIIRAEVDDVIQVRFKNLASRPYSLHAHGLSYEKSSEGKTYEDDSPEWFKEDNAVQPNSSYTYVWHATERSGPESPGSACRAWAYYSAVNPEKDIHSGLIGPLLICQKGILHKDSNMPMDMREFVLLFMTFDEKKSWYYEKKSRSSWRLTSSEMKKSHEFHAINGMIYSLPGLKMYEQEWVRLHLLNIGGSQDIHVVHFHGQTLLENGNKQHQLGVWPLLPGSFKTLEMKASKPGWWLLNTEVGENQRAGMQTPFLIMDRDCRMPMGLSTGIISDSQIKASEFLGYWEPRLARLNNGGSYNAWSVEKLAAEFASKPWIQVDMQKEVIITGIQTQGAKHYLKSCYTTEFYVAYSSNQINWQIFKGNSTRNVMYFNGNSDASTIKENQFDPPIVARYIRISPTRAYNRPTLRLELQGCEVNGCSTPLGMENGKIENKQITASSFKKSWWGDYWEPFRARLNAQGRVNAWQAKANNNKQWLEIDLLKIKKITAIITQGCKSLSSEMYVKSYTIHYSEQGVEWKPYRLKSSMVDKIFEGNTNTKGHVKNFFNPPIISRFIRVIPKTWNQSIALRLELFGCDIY

CC(=N)N1CCC(Oc2ccc(C(=O)NCc3cccc(C(=N)N)c3)cc2)CC1
IC50 [1]: 20 µM | IC50 [2]: 0.059 µM | IC50 [3]: 139 µM

COC(=O)C(Cc1cccc(C(=N)N)c1)NC(=O)c1ccc(OC2CCN(C(C)=N)CC2)cc1 (stereo not drawn)
IC50 [1]: 4 µM | IC50 [2]: 0.201 µM | IC50 [3]: 270 µM
